Measurements: the supplement of paper PMC10307832

What was measured:
Experiment in all cases: relative viability (nuclei count vs DMSO), 5 days (fraction); higher = more cells survive
[1] = test system: 201T
In short: (§1)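 Lung cancer cell lines, seeded in 1536-well plates, were treated the following day by pin tool with a single drug or with five library-drug doses (not always all listed) in √10 steps on top of a fixed anchor-drug dose. Cells were fixed and nuclei stained in one step after 5 days, and nuclei were counted. Relative viability is the nuclei count for treated wells divided by that for vehicle wells, reported as medians of duplicate plates.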

[2] = test system: A-427
In short: as §1

[3] = test system: COR-L23
In short: as §1

[4] = test system: H3255
In short: as §1

[5] = test system: LCLC-103H
In short: as §1

[6] = test system: LCLC-97TM1
In short: as §1

[7] = test system: LK-2
In short: as §1

[8] = test system: LU99A
In short: as §1

[9] = test system: NCI-H1650
In short: as §1

[10] = test system: NCI-H1651
In short: as §1

[11] = test system: NCI-H1793
In short: as §1

[12] = test system: NCI-H1944
In short: as §1

[13] = test system: NCI-H2347
In short: as §1

[14] = test system: NCI-H23
In short: as §1

[15] = test system: NCI-H460
In short: as §1

[16] = test system: NCI-H650
In short: as §1

[17] = test system: NCI-H727
In short: as §1

[18] = test system: NCI-H838
In short: as §1

[19] = test system: PC-14
In short: as §1

[20] = test system: PC-3 [JPC-3]
In short: as §1

[21] = test system: RERF-LC-KJ
In short: as §1

[22] = test system: SW 1573
In short: as §1

[23] = test system: SW 900
In short: as §1

C[C@@H]1CN(CC(=O)Nc2ccc3c(c2)Cc2cccc(-c4cc(=O)cc(N5CCOCC5)o4)c2S3)C[C@H](C)O1 + Nc1ncn([C@H]2C[C@H](O)[C@@H](CO)O2)c(=O)n1 [Decitabine] (partner 2 µM)
relative viability ([1]; first compound 0.04 µM): 0.816
relative viability ([1]; first compound 0.1265 µM): 0.818
relative viability ([1]; first compound 0.4 µM): 0.84
relative viability ([1]; first compound 4 µM): 0.791
relative viability ([2]; first compound 0.04 µM): 0.533
relative viability ([2]; first compound 0.1265 µM): 0.605
relative viability ([2]; first compound 0.4 µM): 0.562
relative viability ([2]; first compound 4 µM): 0.587
relative viability ([3]; first compound 0.04 µM): 0.431
relative viability ([3]; first compound 0.1265 µM): 0.445
relative viability ([3]; first compound 0.4 µM): 0.569
relative viability ([3]; first compound 4 µM): 0.612
relative viability ([4]; first compound 0.04 µM): 0.682
relative viability ([4]; first compound 0.1265 µM): 0.615
relative viability ([4]; first compound 0.4 µM): 0.558
relative viability ([4]; first compound 4 µM): 0.509
relative viability ([5]; first compound 0.04 µM): 0.693
relative viability ([5]; first compound 0.1265 µM): 0.695
relative viability ([5]; first compound 0.4 µM): 0.697
relative viability ([5]; first compound 4 µM): 0.737
relative viability ([6]; first compound 0.1265 µM): 0.231
relative viability ([6]; first compound 0.4 µM): 0.279
relative viability ([6]; first compound 4 µM): 0.273
relative viability ([7]; first compound 0.04 µM): 0.258
relative viability ([7]; first compound 0.1265 µM): 0.279
relative viability ([7]; first compound 0.4 µM): 0.198
relative viability ([7]; first compound 4 µM): 0.257
relative viability ([8]; first compound 0.04 µM): 0.815
relative viability ([8]; first compound 0.1265 µM): 0.928
relative viability ([8]; first compound 0.4 µM): 0.859
relative viability ([8]; first compound 4 µM): 0.851
relative viability ([9]; first compound 0.04 µM): 0.492
relative viability ([9]; first compound 0.1265 µM): 0.44
relative viability ([9]; first compound 0.4 µM): 0.488
relative viability ([9]; first compound 4 µM): 0.499
relative viability ([10]; first compound 0.04 µM): 0.628
relative viability ([10]; first compound 0.1265 µM): 0.628
relative viability ([10]; first compound 0.4 µM): 0.585
relative viability ([10]; first compound 4 µM): 0.599
relative viability ([11]; first compound 0.04 µM): 0.536
relative viability ([11]; first compound 0.1265 µM): 0.552
relative viability ([11]; first compound 0.4 µM): 0.503
relative viability ([11]; first compound 4 µM): 0.526
relative viability ([12]; first compound 0.1265 µM): 0.438
relative viability ([12]; first compound 0.4 µM): 0.466
relative viability ([12]; first compound 4 µM): 0.457
relative viability ([13]; first compound 0.04 µM): 0.581
relative viability ([13]; first compound 0.1265 µM): 0.624
relative viability ([13]; first compound 0.4 µM): 0.693
relative viability ([13]; first compound 4 µM): 0.637
relative viability ([14]; first compound 0.04 µM): 0.347
relative viability ([14]; first compound 0.1265 µM): 0.266
relative viability ([14]; first compound 0.4 µM): 0.296
relative viability ([14]; first compound 4 µM): 0.334
relative viability ([15]; first compound 0.04 µM): 0.401
relative viability ([15]; first compound 0.1265 µM): 0.466
relative viability ([15]; first compound 0.4 µM): 0.379
relative viability ([15]; first compound 4 µM): 0.335
relative viability ([16]; first compound 0.04 µM): 0.346
relative viability ([16]; first compound 0.1265 µM): 0.336
relative viability ([16]; first compound 0.4 µM): 0.377
relative viability ([16]; first compound 4 µM): 0.341
relative viability ([17]; first compound 0.04 µM): 1.14
relative viability ([17]; first compound 0.1265 µM): 1
relative viability ([17]; first compound 0.4 µM): 0.99
relative viability ([17]; first compound 4 µM): 0.8
relative viability ([18]; first compound 0.04 µM): 0.46
relative viability ([18]; first compound 0.1265 µM): 0.472
relative viability ([18]; first compound 0.4 µM): 0.518
relative viability ([18]; first compound 4 µM): 0.492
relative viability ([19]; first compound 0.04 µM): 0.235
relative viability ([19]; first compound 0.1265 µM): 0.253
relative viability ([19]; first compound 0.4 µM): 0.192
relative viability ([19]; first compound 4 µM): 0.167
relative viability ([20]; first compound 0.04 µM): 0.789
relative viability ([20]; first compound 0.1265 µM): 0.841
relative viability ([20]; first compound 0.4 µM): 0.854
relative viability ([20]; first compound 4 µM): 0.781
relative viability ([21]; first compound 0.04 µM): 0.711
relative viability ([21]; first compound 0.1265 µM): 0.61
relative viability ([21]; first compound 0.4 µM): 0.678
relative viability ([21]; first compound 4 µM): 0.556
relative viability ([22]; first compound 0.04 µM): 0.572
relative viability ([22]; first compound 0.1265 µM): 0.56
relative viability ([22]; first compound 0.4 µM): 0.483
relative viability ([22]; first compound 4 µM): 0.615
relative viability ([23]; first compound 0.04 µM): 0.453
relative viability ([23]; first compound 0.1265 µM): 0.427
relative viability ([23]; first compound 0.4 µM): 0.515
relative viability ([23]; first compound 4 µM): 0.43

Clc1ccc(Nc2nnc(Cc3ccncc3)c3ccccc23)cc1 [Vatalanib] + NC(=O)Nc1cc(-c2cccc(F)c2)sc1C(=O)N[C@H]1CCCNC1 [AZD7762] (partner 0.2 µM)
relative viability ([1]; first compound 0.04 µM): 0.611
relative viability ([1]; first compound 0.1265 µM): 0.57
relative viability ([1]; first compound 0.4 µM): 0.621
relative viability ([1]; first compound 1.265 µM): 0.648
relative viability ([1]; first compound 4 µM): 0.57
relative viability ([2]; first compound 0.04 µM): 0.797
relative viability ([2]; first compound 0.1265 µM): 0.736
relative viability ([2]; first compound 0.4 µM): 0.761
relative viability ([2]; first compound 4 µM): 0.64
relative viability ([4]; first compound 0.04 µM): 0.829
relative viability ([4]; first compound 0.1265 µM): 0.892
relative viability ([4]; first compound 0.4 µM): 0.832
relative viability ([4]; first compound 1.265 µM): 0.732
relative viability ([4]; first compound 4 µM): 0.773
relative viability ([5]; first compound 0.04 µM): 0.797
relative viability ([5]; first compound 0.1265 µM): 0.714
relative viability ([5]; first compound 0.4 µM): 0.803
relative viability ([5]; first compound 1.265 µM): 0.806
relative viability ([5]; first compound 4 µM): 0.725
relative viability ([6]; first compound 0.04 µM): 0.24
relative viability ([6]; first compound 0.1265 µM): 0.263
relative viability ([6]; first compound 0.4 µM): 0.222
relative viability ([6]; first compound 1.265 µM): 0.172
relative viability ([6]; first compound 4 µM): 0.23
relative viability ([7]; first compound 0.04 µM): 0.394
relative viability ([7]; first compound 0.1265 µM): 0.412
relative viability ([7]; first compound 0.4 µM): 0.496
relative viability ([7]; first compound 1.265 µM): 0.353
relative viability ([7]; first compound 4 µM): 0.446
relative viability ([8]; first compound 0.04 µM): 0.351
relative viability ([8]; first compound 0.1265 µM): 0.442
relative viability ([8]; first compound 0.4 µM): 0.345
relative viability ([8]; first compound 1.265 µM): 0.258
relative viability ([8]; first compound 4 µM): 0.287
relative viability ([10]; first compound 0.04 µM): 0.441
relative viability ([10]; first compound 0.1265 µM): 0.471
relative viability ([10]; first compound 0.4 µM): 0.46
relative viability ([10]; first compound 1.265 µM): 0.359
relative viability ([10]; first compound 4 µM): 0.4
relative viability ([11]; first compound 0.04 µM): 0.518
relative viability ([11]; first compound 0.1265 µM): 0.311
relative viability ([11]; first compound 0.4 µM): 0.714
relative viability ([11]; first compound 1.265 µM): 0.243
relative viability ([11]; first compound 4 µM): 0.286
relative viability ([12]; first compound 0.04 µM): 0.467
relative viability ([12]; first compound 0.1265 µM): 0.463
relative viability ([12]; first compound 0.4 µM): 0.623
relative viability ([12]; first compound 1.265 µM): 0.46
relative viability ([12]; first compound 4 µM): 0.468
relative viability ([13]; first compound 0.04 µM): 0.776
relative viability ([13]; first compound 0.1265 µM): 0.932
relative viability ([13]; first compound 0.4 µM): 0.901
relative viability ([13]; first compound 1.265 µM): 0.521
relative viability ([13]; first compound 4 µM): 0.769
relative viability ([14]; first compound 0.04 µM): 0.269
relative viability ([14]; first compound 0.1265 µM): 0.229
relative viability ([14]; first compound 0.4 µM): 0.228
relative viability ([14]; first compound 1.265 µM): 0.259
relative viability ([14]; first compound 4 µM): 0.266
relative viability ([15]; first compound 0.04 µM): 0.589
relative viability ([15]; first compound 0.1265 µM): 0.646
relative viability ([15]; first compound 1.265 µM): 0.477
relative viability ([15]; first compound 4 µM): 0.596
relative viability ([16]; first compound 0.04 µM): 1.03
relative viability ([16]; first compound 0.1265 µM): 0.916
relative viability ([16]; first compound 0.4 µM): 0.937
relative viability ([16]; first compound 1.265 µM): 0.883
relative viability ([16]; first compound 4 µM): 0.907
relative viability ([17]; first compound 0.1265 µM): 0.49
relative viability ([17]; first compound 0.4 µM): 0.774
relative viability ([17]; first compound 1.265 µM): 0.654
relative viability ([17]; first compound 4 µM): 0.538
relative viability ([18]; first compound 0.04 µM): 1.07
relative viability ([18]; first compound 0.1265 µM): 0.882
relative viability ([18]; first compound 0.4 µM): 1
relative viability ([18]; first compound 1.265 µM): 0.867
relative viability ([18]; first compound 4 µM): 0.87
relative viability ([19]; first compound 0.04 µM): 0.31
relative viability ([19]; first compound 0.1265 µM): 0.332
relative viability ([19]; first compound 1.265 µM): 0.26
relative viability ([19]; first compound 4 µM): 0.318
relative viability ([20]; first compound 0.04 µM): 0.81
relative viability ([20]; first compound 0.1265 µM): 0.751
relative viability ([20]; first compound 0.4 µM): 0.674
relative viability ([20]; first compound 1.265 µM): 0.705
relative viability ([20]; first compound 4 µM): 0.728
relative viability ([21]; first compound 0.04 µM): 1.16
relative viability ([21]; first compound 0.1265 µM): 0.919
relative viability ([21]; first compound 0.4 µM): 1.05
relative viability ([21]; first compound 1.265 µM): 0.711
relative viability ([21]; first compound 4 µM): 0.749
relative viability ([23]; first compound 0.04 µM): 0.596
relative viability ([23]; first compound 0.1265 µM): 0.653
relative viability ([23]; first compound 0.4 µM): 0.567
relative viability ([23]; first compound 1.265 µM): 0.69
relative viability ([23]; first compound 4 µM): 0.6
